Results from ChEMBL document CHEMBL5058564, “EUbOPEN Chemogenomics Library 2 (Incucyte)” (2022).

How the values were obtained:
Format in all cases: toxicity, cell-based
HEK-293T = test: Incucyte cell viability with HEK293T; conditions: human, 10 µM, compound concentration 10 uM
Fibroblast = test: Incucyte cell viability with human fibroblast; conditions: 10 µM, compound concentration 10 uM
U2OS = test: Incucyte cell viability with U2OS; conditions: human, 10 µM, compound concentration 10 uM
[1] = 0 h, replicate number 2, timepoint 0 hours
[2] = 6 h, replicate number 1, timepoint 6 hours
[3] = 18 h, replicate number 1, timepoint 18 hours
[4] = 24 h, replicate number 1, timepoint 24 hours
[5] = 12 h, replicate number 1, timepoint 12 hours
[6] = 12 h, replicate number 2, timepoint 12 hours
[7] = 6 h, replicate number 2, timepoint 6 hours
[8] = 18 h, replicate number 2, timepoint 18 hours
[9] = 24 h, replicate number 2, timepoint 24 hours
[10] = 0 h, replicate number 1, timepoint 0 hours
Note: unitless GR value; below 1 slowed growth and below 0 cell loss.

| SMILES | Growth Rate (HEK-293T; [1]) | Growth Rate (HEK-293T; [2]) | Growth Rate (HEK-293T; [3]) | Growth Rate (HEK-293T; [4]) | Growth Rate (Fibroblast; [2]) | Growth Rate (Fibroblast; [5]) | Growth Rate (Fibroblast; [6]) | Growth Rate (Fibroblast; [3]) | Growth Rate (U2OS; [1]) | Growth Rate (U2OS; [7]) | Growth Rate (U2OS; [3]) | Growth Rate (U2OS; [8]) | Growth Rate (U2OS; [9]) | Growth Rate (HEK-293T; [7]) | Growth Rate (HEK-293T; [6]) | Growth Rate (Fibroblast; [4]) | Growth Rate (HEK-293T; [5]) | Growth Rate (Fibroblast; [7]) | Growth Rate (Fibroblast; [1]) | Growth Rate (Fibroblast; [10]) | also measured |
| --- | --- | --- | --- | --- | --- | --- | --- | --- | --- | --- | --- | --- | --- | --- | --- | --- | --- | --- | --- | --- | --- |
| CC1(C)[C@H]2C[C@H](C/C=C\CCCC(=O)O)[C@@H](NC(=O)c3csc4ccc(O)cc34)[C@@H]1C2 | 0.67 | 0.73 | 0.94 | 0.85 | 0.09 | 0.51 | 0.75 | 0.69 | -0.79 | 0.91 | 0.37 | 0.81 | 0.86 | – | – | – | – | – | – | – | Growth Rate (U2OS; [2]): 0.23; Growth Rate (U2OS; [5]): 0.14; Growth Rate (U2OS; [4]): 0.66 |
| CN1CCc2cc(Cl)c(O)cc2[C@@H](c2ccccc2)C1.Cl | 0.66 | – | – | – | -0.06 | 1 | – | – | -1 | 0.49 | – | 0.86 | 0.95 | 0.46 | 0.71 | 0.88 | – | – | – | – | – |
| c1ccc(NCc2ccc(CNc3ccccn3)cc2)nc1 | 0.94 | 0.66 | 0.98 | – | – | 0.23 | 0.64 | 0.88 | -1 | – | 0.76 | 0.98 | – | 0.7 | 0.83 | 0.76 | 0.44 | 1 | – | – | Growth Rate (U2OS; [4]): 0.93 |
| O=C(CCCc1ccccc1)Nc1nc2ccccc2c(=O)s1 | 0.98 | 0.03 | 0.34 | 0.34 | -0.7 | -0.62 | -0.39 | -0.7 | – | 0.67 | – | 0.76 | 0.84 | – | – | -0.59 | 0.13 | -0.65 | 0.6 | – | Growth Rate (HEK-293T; [8]): 0.95; Growth Rate (HEK-293T; [9]): 0.84; Growth Rate (Fibroblast; [8]): -0.32; Growth Rate (Fibroblast; [9]): -0.34; Growth Rate (U2OS; [10]): -0.37; Growth Rate (U2OS; [6]): 0.83 |
| CSc1cc2c(cc1C(F)(F)F)N(C(=O)Nc1cccnc1)CC2 | -0.27 | 0.82 | 0.75 | 0.64 | – | – | – | – | – | – | 0.84 | – | 0.93 | – | – | – | 0.63 | – | 0.46 | -0.3 | Growth Rate (U2OS; [6]): 0.94; Growth Rate (U2OS; [4]): 0.99 |
| C[C@H](NC(=O)CNC(=O)c1cccc(Cl)c1)c1ccccc1 | 0.84 | – | – | – | – | – | – | – | – | 0.8 | – | 0.91 | 0.98 | – | 0.96 | – | – | – | 0.36 | 0.45 | Growth Rate (U2OS; [10]): -0.7; Growth Rate (U2OS; [6]): 0.94 |
| CC(C)c1c(NC(=O)Nc2ccc(Cl)cc2)c(=O)n(-c2ccccc2)n1C | 0.92 | – | 0.55 | 0.53 | 0.31 | 0.35 | 0.54 | 0.76 | -0.97 | – | – | – | – | 0.74 | 0.96 | 0.69 | 0.65 | – | 0.39 | 0.29 | Growth Rate (HEK-293T; [9]): 0.96; Growth Rate (Fibroblast; [8]): 0.54; Growth Rate (Fibroblast; [9]): 0.44; Growth Rate (U2OS; [10]): -0.9 |
| CCOc1c2c(c(OCC)c3ncccc13)CN(c1ccc(CS(=O)(=O)NC(=O)Cc3ccccc3OC)cc1C)C2=O | 0.82 | 0.48 | 0.9 | 0.87 | 0.32 | 0.49 | -0.12 | 0.23 | – | 0.75 | – | 1 | – | – | – | -0.06 | 0.83 | -0.34 | 0.58 | 0.27 | Growth Rate (HEK-293T; [8]): 1; Growth Rate (Fibroblast; [8]): -0.18; Growth Rate (Fibroblast; [9]): -0.4; Growth Rate (U2OS; [10]): -0.69 |
| Cc1cccc(S(=O)(=O)N(C)[C@H](C)CCN2CCC(C)CC2)c1.Cl | 0.65 | – | 0.84 | 0.69 | 0.83 | – | – | – | -0.95 | 0.95 | – | 0.97 | – | 0.92 | – | – | – | 0.52 | – | 0.08 | Growth Rate (HEK-293T; [8]): 0.87; Growth Rate (HEK-293T; [9]): 0.66; Growth Rate (U2OS; [10]): 0.29 |
| COc1ccc(NC(=O)c2ccc(-c3ccc(-c4noc(C)n4)cc3C)cc2)cc1OCCN(C)C.Cl | -0.89 | -0.88 | -0.53 | -0.45 | -0.36 | -0.41 | -0.33 | -0.47 | -1 | – | -0.17 | 0.28 | 0.14 | -0.73 | -0.38 | -0.57 | -0.65 | -0.28 | – | – | Growth Rate (HEK-293T; [8]): -0.31; Growth Rate (HEK-293T; [9]): -0.35; Growth Rate (Fibroblast; [8]): -0.48; Growth Rate (Fibroblast; [9]): -0.52; Growth Rate (U2OS; [10]): -0.87; Growth Rate (U2OS; [2]): -0.71; Growth Rate (U2OS; [5]): -0.36; Growth Rate (U2OS; [6]): 0.51; Growth Rate (U2OS; [4]): -0.18 |
| COc1cc2nc(N3CCN(C(=O)COc4c(OC)cccc4C(C)C)CC3)nc(N)c2cc1OC.Cl.Cl | 0.59 | -0.28 | 0.21 | 0.39 | -0.72 | -0.84 | -0.41 | -0.75 | -1 | – | – | – | – | 0.9 | 0.66 | -0.65 | -0.06 | -0.55 | 0.71 | – | Growth Rate (HEK-293T; [8]): 0.61; Growth Rate (HEK-293T; [9]): 0.84; Growth Rate (Fibroblast; [8]): -0.48; Growth Rate (Fibroblast; [9]): -0.39; Growth Rate (U2OS; [5]): 0.56 |
| C[C@H](N)COC(=O)[C@@H](CCCCN)NC(=O)Cc1c(-c2ccc3ccccc3c2)[nH]c2c1ccc1ccccc12 | 0.88 | – | – | – | 0.67 | – | – | 0.71 | – | – | 0.73 | 0.76 | – | – | – | 0.64 | 0.97 | – | 0.37 | 0.29 | Growth Rate (U2OS; [2]): 0.46; Growth Rate (U2OS; [5]): 0.89; Growth Rate (U2OS; [6]): 0.83 |
| Br.Cc1cccc(C2CN(C)CCc3c2cc(O)c(O)c3Cl)c1 (stereo unspecified) | 0.8 | 0.81 | 0.95 | 0.93 | – | – | – | – | – | 0.97 | 0.87 | 0.92 | 0.97 | 0.45 | 0.8 | – | 0.71 | – | 0.18 | -0.09 | Growth Rate (HEK-293T; [8]): 0.81; Growth Rate (U2OS; [5]): 0.92; Growth Rate (U2OS; [4]): 0.84 |
